According to ChEMBL document CHEMBL1133215, “Natural and synthetic analogues of actinomycin D as Grb2-SH2 domain blockers” (Bioorg Med Chem Lett, 2000):
Calls of active or inactive are those of the source. No cut-off for these calls is given here. Numbered stars: 1 amine (or outer) side, 2 acyl side, 3 side chain; on linkers, the order of the positions; unused ones are H or OH. Bridge positions count the residues as written; N and C are the ends. Square brackets hold non-standard residues; d marks the D form. Peptide text beside a SMILES is read from it. I, II: the chains in the order shown. Actinocin(1to9) = Cc1c2oc3c(C)ccc(C(=O)[*:2])c3nc-2c(C(=O)[*:1])c(N)c1=O; NMeV = CN[C@H](C(=O)O)C(C)C; Sar = CNCC(=O)O

Key:
[1] = biological target: Growth factor receptor-bound protein 2 (Mus musculus) (UniProt Q60631); assay: In vitro inhibitory activity against Shc/Grb2 interactions in B104-1-1 cells at 5 uM; type: functional, cell-based
Chain of Growth factor receptor-bound protein 2 (Mus musculus) (Q60631 whole entry): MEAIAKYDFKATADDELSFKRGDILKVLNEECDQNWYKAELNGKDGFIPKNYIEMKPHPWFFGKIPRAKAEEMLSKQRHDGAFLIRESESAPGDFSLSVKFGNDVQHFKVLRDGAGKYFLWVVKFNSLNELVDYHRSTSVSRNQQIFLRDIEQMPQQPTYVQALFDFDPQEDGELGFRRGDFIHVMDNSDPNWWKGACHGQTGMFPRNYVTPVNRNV

[2] = biological target: Growth factor receptor-bound protein 2 (Mus musculus) (UniProt Q60631); assay: In vitro inhibitory activity against Shc/Grb2 interactions in B104-1-1 cells at 2 uM; type: functional, cell-based
[3] = system: B104; assay: Growth inhibitory activity was tested against B104-1-1 cells; type: functional, Mus musculus
[4] = biological target: Growth factor receptor-bound protein 2 (Mus musculus, UniProt Q60631); assay: In vitro binding assay of Shc-derived phosphopeptide to Growth factor receptor bound protein 2 SH2 in B104-1-1 cells was determined; type: cell-based
Chain of Growth factor receptor-bound protein 2 (Q60631 whole entry): as above

[5] = system: B104; assay: Growth inhibitory activity against B104-1-1 cells; Not active; type: functional, cell-based; conditions: Mus musculus

Compound	inhibition [1] [%]	inhibition [2] [%]	GI50 [3] [nM]	IC50 [4] [nM]	GI50 [5]
Cc1c2oc3c(C)ccc(C(=O)N[C@@H]4C(=O)N[C@H](Cc5ccc(O)cc5)C(=O)N5CCC[C@H]5C(=O)N(C)CC(=O)N[C@@H](C(C)C)C(=O)O[C@@H]4C)c3nc-2c(C(=O)N[C@@H]2C(=O)N[C@H](Cc3ccc(O)cc3)C(=O)N3CCC[C@H]3C(=O)N(C)CC(=O)N[C@@H](C(C)C)C(=O)O[C@@H]2C)c(N)c1=O (stereo in doubt; 7) [listing 1 of 2 here]	56.6	42.9	–	–	–
COc1ccc(C[C@H]2NC(=O)[C@@H](NC(=O)c3c4nc5c(C(=O)N[C@@H]6C(=O)N[C@H](Cc7ccc(OC)cc7)C(=O)N7CCC[C@H]7C(=O)N(C)CC(=O)N[C@@H](C(C)C)C(=O)O[C@@H]6C)ccc(C)c5oc-4c(C)c(=O)c3N)[C@@H](C)OC(=O)[C@H](C(C)C)NC(=O)CN(C)C(=O)[C@@H]3CCCN3C2=O)cc1	80.6	69.7	10	1500	–
Cc1c2oc3c(C)ccc(C(=O)N[C@@H]4C(=O)N[C@H](Cc5ccc(O)cc5)C(=O)N5CCC[C@H]5C(=O)N(C)CC(=O)N[C@@H](C(C)C)C(=O)O[C@@H]4C)c3nc-2c(C(=O)N[C@@H]2C(=O)N[C@H](Cc3ccc(O)cc3)C(=O)N3CCC[C@H]3C(=O)N(C)CC(=O)N[C@@H](C(C)C)C(=O)O[C@@H]2C)c(N)c1=O (stereo in doubt; 7) [listing 2 of 2 here]	–	–	–	4500	–
Cc1c2oc3c(C)ccc(C(=O)N[C@@H]4C(=O)N[C@H](C(C)C)C(=O)N5CCC[C@H]5C(=O)N(C)CC(=O)N[C@@H](Cc5ccc(O)cc5)C(=O)O[C@@H]4C)c3nc-2c(C(=O)N[C@@H]2C(=O)N[C@H](C(C)C)C(=O)N3CCC[C@H]3C(=O)N(C)CC(=O)N[C@@H](Cc3ccc(O)cc3)C(=O)O[C@@H]2C)c(N)c1=O (stereo in doubt; 10) [listing 1 of 2 here]	–	–	–	800	–
COc1ccc(C[C@@H]2NC(=O)CN(C)C(=O)[C@@H]3CCCN3C(=O)[C@@H](C(C)C)NC(=O)[C@@H](NC(=O)c3c4nc5c(C(=O)N[C@@H]6C(=O)N[C@H](C(C)C)C(=O)N7CCC[C@H]7C(=O)N(C)CC(=O)N[C@@H](Cc7ccc(OC)cc7)C(=O)O[C@@H]6C)ccc(C)c5oc-4c(C)c(=O)c3N)[C@@H](C)OC2=O)cc1	73.8	55.1	–	2000	–
Cc1c2oc3c(C)ccc(C(=O)N[C@@H]4C(=O)N[C@H](C(C)C)C(=O)N5CCC[C@H]5C(=O)N(C)CC(=O)N[C@H](C(C)C)C(=O)O[C@@H]4C)c3nc-2c(C(=O)N[C@@H]2C(=O)N[C@H](C(C)C)C(=O)N3CCC[C@H]3C(=O)N(C)CC(=O)N[C@H](C(C)C)C(=O)O[C@@H]2C)c(N)c1=O	86	72	3	1000	–
CC[C@@H](C)[C@H]1NC(=O)[C@@H](NC(=O)c2c3nc4c(C(=O)N[C@@H]5C(=O)N[C@H]([C@H](C)CC)C(=O)N6CCC[C@H]6C(=O)N(C)CC(=O)N[C@@H](C(C)C)C(=O)O[C@@H]5C)ccc(C)c4oc-3c(C)c(=O)c2N)[C@@H](C)OC(=O)[C@H](C(C)C)NC(=O)CN(C)C(=O)[C@@H]2CCCN2C1=O	40.8	30.9	0.8	5900	–
Cc1c2oc3c(C)ccc(C(=O)N[C@@H]4C(=O)N[C@H](C(C)C)C(=O)N5CCC[C@H]5C(=O)N(C)CC(=O)N[C@H](Cc5ccccc5)C(=O)O[C@@H]4C)c3nc-2c(C(=O)N[C@@H]2C(=O)N[C@H](C(C)C)C(=O)N3CCC[C@H]3C(=O)N(C)CC(=O)N[C@H](Cc3ccccc3)C(=O)O[C@@H]2C)c(N)c1=O	87.7	75.1	3	900	–
COc1ccc(C[C@H]2NC(=O)CN(C)C(=O)[C@@H]3CCCN3C(=O)[C@@H](C(C)C)NC(=O)[C@@H](NC(=O)c3c4nc5c(C(=O)N[C@@H]6C(=O)N[C@H](C(C)C)C(=O)N7CCC[C@H]7C(=O)N(C)CC(=O)N[C@H](Cc7ccc(OC)cc7)C(=O)O[C@@H]6C)ccc(C)c5oc-4c(C)c(=O)c3N)[C@@H](C)OC2=O)cc1	73	46.9	–	2000	–
Cc1c2oc3c(C)ccc(C(=O)N[C@@H]4C(=O)N[C@H](C(C)C)C(=O)N5CCC[C@H]5C(=O)N(C)CC(=O)N[C@@H](Cc5ccc(O)cc5)C(=O)O[C@@H]4C)c3nc-2c(C(=O)N[C@@H]2C(=O)N[C@H](C(C)C)C(=O)N3CCC[C@H]3C(=O)N(C)CC(=O)N[C@@H](Cc3ccc(O)cc3)C(=O)O[C@@H]2C)c(N)c1=O (stereo in doubt; 10) [listing 2 of 2 here]	89.7	75.9	–	–	–
Cc1c2oc3c(C)ccc(C(=O)N[C@@H]4C(=O)N[C@H](C(C)C)C(=O)N5CCC[C@H]5C(=O)N(C)CC(=O)N[C@H](Cc5ccc(O)cc5)C(=O)O[C@@H]4C)c3nc-2c(C(=O)N[C@@H]2C(=O)N[C@H](C(C)C)C(=O)N3CCC[C@H]3C(=O)N(C)CC(=O)N[C@H](Cc3ccc(O)cc3)C(=O)O[C@@H]2C)c(N)c1=O (stereo in doubt; 5) [listing 1 of 2 here]	–	–	–	> 10000	–
Cc1c2oc3c(C)ccc(C(=O)N[C@@H]4C(=O)N[C@H](Cc5ccc(O)cc5)C(=O)N5CCC[C@H]5C(=O)N(C)CC(=O)N[C@@H](C(C)C)C(=O)O[C@@H]4C)c3nc-2c(C(=O)N[C@@H]2C(=O)N[C@H](Cc3ccc(O)cc3)C(=O)N3CCC[C@H]3C(=O)N(C)CC(=O)N[C@@H](C(C)C)C(=O)O[C@@H]2C)c(N)c1=O (stereo in doubt; 1) [listing 1 of 2 here]	90.7	84.3	–	–	inactive
Cc1c2oc3c(C)ccc(C(=O)N[C@@H]4C(=O)N[C@H](C(C)C)C(=O)N5CCC[C@H]5C(=O)N(C)CC(=O)N[C@@H](Cc5ccc(O)cc5)C(=O)O[C@@H]4C)c3nc-2c(C(=O)N[C@@H]2C(=O)N[C@H](C(C)C)C(=O)N3CCC[C@H]3C(=O)N(C)CC(=O)N[C@@H](Cc3ccc(O)cc3)C(=O)O[C@@H]2C)c(N)c1=O (stereo in doubt; 8) [listing 1 of 2 here]	28.5	15.9	–	–	–
Cc1c2oc3c(C)ccc(C(=O)N[C@@H]4C(=O)N[C@H](Cc5ccc(O)cc5)C(=O)N5CCC[C@H]5C(=O)N(C)CC(=O)N[C@@H](C(C)C)C(=O)O[C@@H]4C)c3nc-2c(C(=O)N[C@@H]2C(=O)N[C@H](Cc3ccc(O)cc3)C(=O)N3CCC[C@H]3C(=O)N(C)CC(=O)N[C@@H](C(C)C)C(=O)O[C@@H]2C)c(N)c1=O (stereo in doubt; 1) [listing 2 of 2 here]	–	–	–	500	–
Cc1c2oc3c(C)ccc(C(=O)N[C@@H]4C(=O)N[C@H](C(C)C)C(=O)N5CCC[C@H]5C(=O)N(C)CC(=O)N[C@H](Cc5ccc(O)cc5)C(=O)O[C@@H]4C)c3nc-2c(C(=O)N[C@@H]2C(=O)N[C@H](C(C)C)C(=O)N3CCC[C@H]3C(=O)N(C)CC(=O)N[C@H](Cc3ccc(O)cc3)C(=O)O[C@@H]2C)c(N)c1=O (stereo in doubt; 12) [listing 1 of 2 here]	–	–	–	800	–
Cc1c2oc3c(C)ccc(C(=O)N[C@@H]4C(=O)N[C@H](C(C)C)C(=O)N5CCC[C@H]5C(=O)N(C)CC(=O)N(C)[C@@H](C(C)C)C(=O)O[C@@H]4C)c3nc-2c(C(=O)N[C@@H]2C(=O)N[C@H](C(C)C)C(=O)N3CCC[C@H]3C(=O)N(C)CC(=O)N(C)[C@@H](C(C)C)C(=O)O[C@@H]2C)c(N)c1=O [DACTINOMYCIN] (I: T[dV]P[Sar][NMeV] / II: T[dV]P[Sar][NMeV]; ester I:1-I:C, II:1-II:C; linker I:N-II:N via Actinocin(1to9))	50.5	40.1	0.7	5000	–
Cc1c2oc3c(C)ccc(C(=O)N[C@@H]4C(=O)N[C@H](C(C)C)C(=O)N5CCC[C@H]5C(=O)N(C)CC(=O)N[C@H](Cc5ccc(O)cc5)C(=O)O[C@@H]4C)c3nc-2c(C(=O)N[C@@H]2C(=O)N[C@H](C(C)C)C(=O)N3CCC[C@H]3C(=O)N(C)CC(=O)N[C@H](Cc3ccc(O)cc3)C(=O)O[C@@H]2C)c(N)c1=O (stereo in doubt; 5) [listing 2 of 2 here]	27.4	3.5	–	–	inactive
Cc1c2oc3c(C)ccc(C(=O)N[C@@H]4C(=O)N[C@H](Cc5ccccc5)C(=O)N5CCC[C@H]5C(=O)N(C)CC(=O)N[C@@H](C(C)C)C(=O)O[C@@H]4C)c3nc-2c(C(=O)N[C@@H]2C(=O)N[C@H](Cc3ccccc3)C(=O)N3CCC[C@H]3C(=O)N(C)CC(=O)N[C@@H](C(C)C)C(=O)O[C@@H]2C)c(N)c1=O	82.8	73.6	8	1200	–
Cc1c2oc3c(C)ccc(C(=O)N[C@@H]4C(=O)N[C@H](C(C)C)C(=O)N5CCC[C@H]5C(=O)N(C)CC(=O)N[C@@H](Cc5ccccc5)C(=O)O[C@@H]4C)c3nc-2c(C(=O)N[C@@H]2C(=O)N[C@H](C(C)C)C(=O)N3CCC[C@H]3C(=O)N(C)CC(=O)N[C@@H](Cc3ccccc3)C(=O)O[C@@H]2C)c(N)c1=O	78.8	56.8	–	1800	–
Cc1c2oc3c(C)ccc(C(=O)N[C@@H]4C(=O)N[C@H](C(C)C)C(=O)N5CCC[C@H]5C(=O)N(C)CC(=O)N[C@H](Cc5ccc(O)cc5)C(=O)O[C@@H]4C)c3nc-2c(C(=O)N[C@@H]2C(=O)N[C@H](C(C)C)C(=O)N3CCC[C@H]3C(=O)N(C)CC(=O)N[C@H](Cc3ccc(O)cc3)C(=O)O[C@@H]2C)c(N)c1=O (stereo in doubt; 12) [listing 2 of 2 here]	90.2	79.9	–	–	–
Cc1c2oc3c(C)ccc(C(=O)N[C@@H]4C(=O)N[C@H](C(C)C)C(=O)N5CCC[C@H]5C(=O)N(C)CC(=O)N[C@@H](Cc5ccc(O)cc5)C(=O)O[C@@H]4C)c3nc-2c(C(=O)N[C@@H]2C(=O)N[C@H](C(C)C)C(=O)N3CCC[C@H]3C(=O)N(C)CC(=O)N[C@@H](Cc3ccc(O)cc3)C(=O)O[C@@H]2C)c(N)c1=O (stereo in doubt; 8) [listing 2 of 2 here]	–	–	–	> 10000	–
CC[C@@H](C)[C@H]1NC(=O)CN(C)C(=O)[C@@H]2CCCN2C(=O)[C@@H]([C@H](C)CC)NC(=O)[C@@H](NC(=O)c2c3nc4c(C(=O)N[C@@H]5C(=O)N[C@H]([C@H](C)CC)C(=O)N6CCC[C@H]6C(=O)N(C)CC(=O)N[C@H]([C@H](C)CC)C(=O)O[C@@H]5C)ccc(C)c4oc-3c(C)c(=O)c2N)[C@@H](C)OC1=O	25.3	15.1	1	7600	–
